Assay results reported in patent publication US20170112941A1, “VE-CADHERIN BINDING BIOCONJUGATE” (Symic IP, LLC, priority 2015, published 2017).
Ends that are not written are not given here. * marks the point of attachment. NHNH2 = NN*

Assays:
[1] = target: T1, Recombinant VE cadherin/Fc chimera (Homo sapiens, UniProt P33151); assay: VE-Cadherin Binding Assay (plate ELISA with biotinylated molecule, streptavidin-HRP)
T1 construct: purchased R&D systems 938-VC
Description: Recombinant VE cadherin/Fc chimera (R&D systems, Prod#938-VC) was prepared in 1× Phosphate Buffered Saline (PBS, Gibco, pH 7.4) at 5 μg/mL. 50 μL of this solution was incubated in each well of Costar high bind plate (Prod #9018) overnight at 4° C. The plate was washed three times with PBS. VE-cadherin coated wells were blocked using 0.5% non-fat dry milk and 50 μg/mL heparin sodium in 1×PBS. Blocked plates were then treated with a concentration gradient of eHep-Bbeta (biotinylated) molecule (eHep-Bbeta, 1:8:50). The eHep-Bbeta was dissolved in Tris-NaCl—CaCl2 at 1 mg/mL, serial dilution (1:3) 50 μL 2 hour RT. At the end of the incubation plate was washed three times with PBS.
Ultra-Streptavidin HRP (ThermoFisher Scientific, Prod# N504) was diluted 1:500 using 1% BSA, 1×PBS and 0.05% tween was used to detect the biotinylated molecule bound to rh VE-cadherin coated plates. 100 μL of streptavidin solution was incubated in each well for 20 minutes at RT. The plate was washed three times with 1×PBS. 100 μL of TMB substrate solution (Abcam, slowest kinetic rate) was added to each well and developed for 20 minutes in the dark. 25 μL of stop solution (0.64 M H2SO4 in water) was added to stop the reaction and absorbance was read using Molecular Device i3 at 450 nm.
This assay may be used to determine the binding affinity of the bioconjugates as well as the peptides alone.

[2] = tested on: HUVECs; assay: HUVEC culture, thrombin challenge, pMLC/phalloidin fluorescence imaging; assay type: cell-based, human; conditions: thrombin 1 U/mL, eHep-Bbeta 100 μg/mL, 10 minutes at 37° C., FIG. 3
Description: HUVECs were grown to confluence in 24-well tissue culture treated plates (10000 cells per cm^2) for 3 days. The cells were cultured in vascular basal medium (ATCC, prod# PCS-100-030) supplemented with 0.2% bovine brain extract (BBE), 10 mM L-glutamine, 5 U/mL heparin sodium, 1 μg/mL hydrocortisone hemisuccinate, 50 μg/mL ascorbic acid, and 20% fetal bovine serum. The wells were washed three times with 1× phosphate buffered saline (PBS), and then were treated with medium alone, medium supplemented with thrombin at 1 U/mL, medium supplemented with thrombin at 1 U/mL and eHep-Bbeta at 100 μg/mL, medium supplemented with thrombin at 1 U/mL and heparin at 100 μg/mL for 10 minutes at 37° C. The wells were then washed three times with 1×PBS. Each wash was for 5 minutes. The cells were then fixed using 4% formalin in 1×PBS for 15 minutes at room temperature, washed four times with 1×PBS (each wash was for 10 minutes). Blocking buffer containing 5% normal goat serum, and 0.3% Triton-X 100 in 1×PBS was prepared and 500 μL was added to each well. Blocking was done for 1 hour at room temperature. Antibody dilution buffer containing 1% BSA, and 0.3% Triton-X 100 in 1×PBS was prepared. 200 μL of Rabbit anti pMLC diluted 1:50 using antibody dilution buffer was added to each well and incubated overnight at 4° C. […] The wells were then imaged using an EVOS fluorescence microscope.

[3] = tested on: acute renal ischemic model; assay: Renal Ischemia Reperfusion (acute renal ischemic model); assay type: in vivo; conditions: rat
Description: Kidney damage was assessed by measuring serum creatinine levels 24 hours post procedure, and by creatinine clearance measured at 24 hours and 7 days post procedure. In this study, the ischemia time was reduced here to produce a more moderate injury, and the bioconjugate was delivered to the femoral vein, rather than directly to the renal artery, in order to reduce procedure time. See, Verma, et al. “Renal Endothelial Injury and Microvascular Dysfunction in Acute Kidney Injury.” Seminars in nephrology. Vol. 35. No. 1. WB Saunders, 2015 and Urbschat, et al. “Combined peri-ischemic administration of BP 15-42 in treating ischemia reperfusion injury of the mouse kidney.” Microvascular research 101 (2015): 48-54. All test articles were formulated in 1×PBS at 5 mg/mL and 500 μL were delivered for an approximate dose of 10 mg/kg. 1.4. […] Animals were closed and monitored during recovery for 24 hours. • 1.5.8. […] If creatinine clearance was positive in the positive control or test article at 7 days, the animal was survived until day 28, at which point creatinine clearance was again be measured. […] Serum creatinine was measured in each animal at baseline (prior to procedure) and 24 hours post-procedure. • 1.7. Creatinine clearance was measured at 1 and 7 days post procedure. • 1.8. […] Serum creatinine and creatinine clearance levels measured at 24 hours was compared between groups using an unpaired t-test. […]

T1 sequence (P33151 with tags, fused parts or gaps limits assumed): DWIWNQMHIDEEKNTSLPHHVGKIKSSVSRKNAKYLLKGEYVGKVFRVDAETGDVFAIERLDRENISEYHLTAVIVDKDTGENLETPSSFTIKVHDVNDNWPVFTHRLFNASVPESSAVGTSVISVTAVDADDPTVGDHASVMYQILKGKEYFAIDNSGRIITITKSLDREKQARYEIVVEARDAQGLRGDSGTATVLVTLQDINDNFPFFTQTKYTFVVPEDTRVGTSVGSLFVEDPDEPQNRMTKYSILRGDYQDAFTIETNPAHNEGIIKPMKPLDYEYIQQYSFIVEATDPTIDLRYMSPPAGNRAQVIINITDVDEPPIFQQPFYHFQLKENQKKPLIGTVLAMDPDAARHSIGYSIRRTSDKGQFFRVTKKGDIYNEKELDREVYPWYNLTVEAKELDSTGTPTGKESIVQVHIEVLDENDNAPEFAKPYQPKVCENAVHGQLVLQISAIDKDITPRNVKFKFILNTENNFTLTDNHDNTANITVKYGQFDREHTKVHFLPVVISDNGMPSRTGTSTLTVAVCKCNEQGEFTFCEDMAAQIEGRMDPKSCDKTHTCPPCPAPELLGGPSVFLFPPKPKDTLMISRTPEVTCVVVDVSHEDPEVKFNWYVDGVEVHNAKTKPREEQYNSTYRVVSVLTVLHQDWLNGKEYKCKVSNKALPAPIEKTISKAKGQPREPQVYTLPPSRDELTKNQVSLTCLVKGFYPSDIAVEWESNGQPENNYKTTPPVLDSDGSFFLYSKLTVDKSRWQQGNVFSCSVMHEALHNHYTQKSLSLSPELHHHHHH

effect of Tris-NaCl-CaCl2 buffer on molecule binding to VE-cadherin ([1]; Tris-NaCl-CaCl2 buffer): enhances molecule binding significantly
Substance: eHep-Bbeta: Heparin (MWavg 16 kDa) coupled by EDC to Bbeta peptide GHRPLDKKREEAPSLRPAPPPISGGGYR(GSG)-hydrazide; about 3.7 peptides/heparin (GHRPLDKKREEAPSLRPAPPPISGGGYRGSG-NHNH2; also: coupled by EDC to heparin (MWavg 16 kDa), about 3.7 peptides/heparin, attachment site not given here)
binding to VE-cadherin ([1]; biotinylated eHep-Bbeta (1:8:50), 1 mg/mL in Tris-NaCl-CaCl2, serial dilution 1:3, 2 hour RT, absorbance 450 nm, FIG. 2): binds to VE-cadherin in a dose dependent manner | endothelial cell barrier function [2]: preserves endothelial cell barrier function | protection from renal damage upon reperfusion, compared with active control (peptide alone) ([3]; 30 minutes ischemia, approximate dose 10 mg/kg into femoral vein immediately after clamp removal, FIG. 4): protects from renal damage upon reperfusion better than active control (peptide alone) | kidney damage (serum creatinine 24 hours, creatinine clearance 24 hours and 7 days post procedure) ([3]; treatment immediately following renal reperfusion, approximate dose 10 mg/kg, femoral vein): inhibits kidney damage
